Experimental data as given in patent US7579019B2, “Pharmaceutical carrier device suitable for delivery of pharmaceutical compounds to mucosal surfaces” (priority 1997, dated 2009).

Test: systemic availability study in dogs, testosterone, RIA method (Example 40)
Assay type: in vivo
Conditions: female, bred hound, dog, plasma, other: buccal (film disc applied to the buccal mucosa), 0.8 mg per disc, mean of three dogs, buccal ½ inch disc of Example 39 film, 0.8 mg testosterone per disc, read-out: systemic plasma level, Mean
Text: The films obtained via Examples 38 and 39 are die-cut in ½ inch diameter discs to be characterized and to be used for a systemic availability study in three dogs (20-25 kg spayed female bred hounds). One disc of the film to be evaluated is applied to the inside of the mouth on the buccal mucosa. A slight pressure is applied for 10 seconds. Then, the oral cavity is examined to assure adherence of the film to the mucosa and over the course of the study, to monitor the erosion of the discs. Using an indwelling jugular catheter, blood samples are collected at specific intervals. The serum is characterized by an ELISA assay in the case of albuterol sulfate and by an RIA method for the testosterone study.
After application of ½ inch diameter discs, systemic plasma levels obtained at different intervals are given in nanograms per milliliter for the mean of the three dogs.

Compound: C[C@]12CC[C@H]3[C@@H](CCC4=CC(=O)CC[C@@]43C)[C@@H]1CC[C@@H]2O [testosterone]
- concentration at 0 min (time 0 minutes): 0 ng/mL
- concentration at 5 min (time 5 minutes): 2.21 ng/mL
- concentration at 10 min (time 10 minutes): 4.68 ng/mL
- concentration at 15 min (time 15 minutes): 3.81 ng/mL
- concentration at 30 min (time 30 minutes): 2.87 ng/mL
- concentration at 60 min (time 60 minutes): 3.73 ng/mL
- concentration at 90 min (time 90 minutes): 4.82 ng/mL
- concentration at 120 min (time 120 minutes): 7.14 ng/mL
- concentration at 150 min (time 150 minutes): 3.2 ng/mL
- concentration at 180 min (time 180 minutes): 0.62 ng/mL
- concentration at 240 min (time 240 minutes): 0.18 ng/mL
- concentration at 360 min (time 360 minutes): 0.12 ng/mL
- concentration at 480 min (time 480 minutes): 0.02 ng/mL
- concentration at 720 min (time 720 minutes): 0.01 ng/mL
